Here are results for seven molecules from patent EP0311051A2, “Pyridylacetonitrile derivatives” (priority 1987, dated 1989).

In experiment [1] the test system is rice blast fungus (Pyricularia oryzae). It is filed as in vivo. As to conditions: 500 ppm a.i., 10 days after inoculation; for No. of leaves in each infection degree 0: index 0 = 0 lesions per leaf; for No. of leaves in each infection degree 1: index 1 = 1 lesion per leaf; for No. of leaves in each infection degree 2: index 2 = 2-5 lesions per leaf; for No. of leaves in each infection degree 3: index 3 = 6-10 lesions per leaf; for No. of leaves in each infection degree 4: index 4 = 11 or more lesions per leaf; for % of Infected leaves / Infection degree / No. of infected leaves: rice seedlings.

Experiment [2] deals with Botrytis cinerea. The experiment is described as follows: Curative activity against gray mold of egg plant (detached leaf, spray after disease development). It counts as in vivo. As to conditions: 125 ppm a.i. As to the method: A second developed leaf of egg plant (variety: Senryo #12) was placed in a petri dish and the mycelia of Botrytis cinerea grown on a PDA culture medium was inoculated after punching with a cork borer on the center of the leaf. The incubation was carried out at 25°C under humid condition for 24 hours. […] After air drying, the incubation was carried out at 25°C under humid condition. The diameter of the infected area was measured every day for 5 days after the application. Eight tests were carried out in each run.

In another experiment the test system is Sclerotinia sclerotiorum. Kind of experiment: Antifungal activity against Sclerotinia rot of kidney bean (sprayed cotyledons, mycelial inoculation). It counts as in vivo. The following applies: 500 ppm a.i.; for Average infected area: 28°C, RH 100%, 4 days; for Controlled value: (1-S/S₀)×100, 4 days. As to the method: A 20 ml sample solution containing a predetermined concentration of the active compound was sprayed on 10 cotyledons of a kidney bean (variety: Masterpiece), which were dried in a room. After drying, the mycelia of Sclerotinia sclerotiorum grown on a PDA culture medium was inoculated after punching with a cork borer. The incubation was carried out at a temperature of 28°C and an RH of 100% for 4 days. The infected area was measured. Ten tests were carried out in each run. […]

Experiment [3] has as its system Botrytis cinerea. Kind of experiment: Activity persistence against gray mold of egg plant (spray 1 to 10 days before inoculation). It counts as in vivo. As to conditions: 250 ppm a.i.
The subject of experiment [4] is Botrytis cinerea. The experiment is described as follows: Antifungal activity against Botrytis cinerea by agar dilution method. It is filed as cell-based. The following applies: 120 h, concentration for 90% inhibition of mycelium growth, potato-agar medium, 25°C, 5 days, read-out: EC₉₀. The method, then:
The culture medium thus obtained was allowed to stand in a room with constant temperature for predetermined days. Thereafter, the growth of mycelium of the microorganism was measured and the concentration for 90% inhibition of the growth (EC₉₀) was determined. Four tests were carried out in each run. The tests for microorganisms were carried out at a temperature of 25°C for 5 days.
(In agar dilution the substance is mixed into plates at graded concentrations.)

Setting [5] is: 1 day between application and observation.
[6] abbreviates: 2 days between application and observation.
[7] abbreviates: 3 days between application and observation.
The mark [8] stands for this setting: 4 days between application and observation.
The mark [9] stands for this setting: 5 days between application and observation.
[10] abbreviates: 1 day between application and inoculation.
Where [11] appears, read: 4 days between application and inoculation.
Where [12] appears, read: 7 days between application and inoculation.
Setting [13] is: 10 days between application and inoculation.

Converted amounts (≈) assume the structure as drawn.

On to `CC(C)OC(=O)C(C(=O)OC(C)C)=C1SCCS1` [F, diisopropyl-1,3,-dithiolan-2-ylidene malonate], for which, in experiment [1], the “No. of leaves in each infection degree 0” value worked out at 128, the “No. of leaves in each infection degree 1” value was 45, the “No. of leaves in each infection degree 2” value was found to be 12 and the “No. of leaves in each infection degree 3” value is recorded as 0. Moreover, in experiment [1], the “No. of leaves in each infection degree 4” value worked out at 0, the “% of Infected leaves” value is 30.8%, the Infection degree is 9.3 and the “No. of infected leaves” value is recorded as 185.
For `O=C1OCc2c(Cl)c(Cl)c(Cl)c(Cl)c21` [G, 4,5,6,7-tetrachlorophthalide], in experiment [1], the “No. of leaves in each infection degree 0” value is given as 151, the “No. of leaves in each infection degree 1” value was 28, the “No. of leaves in each infection degree 2” value is listed as 1 and the “No. of leaves in each infection degree 3” value is reported as 0. Also, in experiment [1], the “No. of leaves in each infection degree 4” value was found to be 0, the “% of Infected leaves” value is 16.1%, the Infection degree was 4.2 and the “No. of infected leaves” value was found to be 180.
With `CCC(c1ccc(F)cc1Cl)C(C#N)c1cccnc1` (centres unmarked) [Compound 12, 3-(2-chloro-4-fluorophenyl)-2-(3-pyridyl)pentanenitrile], the Diameter of lesion was 10 mm in the experiment on Botrytis cinerea [2] (setting [5]); 15 mm in the experiment with Botrytis cinerea [2] (setting [6]); 17 mm with Botrytis cinerea [2] (setting [7]); 19 mm in the experiment on Botrytis cinerea [2] (setting [8]); 19 mm in the experiment with Botrytis cinerea [2] (setting [9]). The molecule also registered an Average infected area with Sclerotinia sclerotiorum of 5%. This molecule also showed a Controlled value in the experiment on Sclerotinia sclerotiorum of 95%. The Infection degree stood at 10.0 in the experiment with Botrytis cinerea [3] (setting [10]), 11.0 in the experiment on Botrytis cinerea [3] (setting [11]), 12.0 in the experiment with Botrytis cinerea [3] (setting [12]) and 15.0 in the experiment with Botrytis cinerea [3] (setting [13]). Besides, in the experiment with Botrytis cinerea [4], the EC90 is 0.9 mg/L (≈ 3.12 µM).
Molecule `CCC(c1ccc(Cl)cc1Cl)C(C#N)c1cccnc1` (centres unmarked) [Compound 1, 3-(2,4-dichlorophenyl)-2-(3-pyridyl)pentanenitrile] displayed a Diameter of lesion in the experiment with Botrytis cinerea [2] (setting [5]) of 10 mm. Moreover, the Diameter of lesion in the experiment on Botrytis cinerea [2] (setting [6]) is recorded as 15 mm. The molecule also displayed a Diameter of lesion with Botrytis cinerea [2] (setting [7]) of 17 mm. In the experiment with Botrytis cinerea [2] (setting [8]), this molecule displayed a Diameter of lesion of 19 mm. In the experiment with Botrytis cinerea [2] (setting [9]), the Diameter of lesion amounted to 19 mm. Further, in experiment [1], the “No. of leaves in each infection degree 0” value is 145, the “No. of leaves in each infection degree 1” value turned out to be 48, the “No. of leaves in each infection degree 2” value is 13 and the “No. of leaves in each infection degree 3” value was 0. Besides, in experiment [1], the “No. of leaves in each infection degree 4” value is recorded as 0, the “% of Infected leaves” value stood at 29.6%, the Infection degree worked out at 9.0 and the “No. of infected leaves” value is on record as 206. In addition, in the experiment on Sclerotinia sclerotiorum, the Average infected area was 5% and the Controlled value came out at 95%. This molecule also displayed an Infection degree in the experiment with Botrytis cinerea [3] (setting [10]) of 10.0. In the experiment with Botrytis cinerea [3] (setting [11]), this molecule returned an Infection degree of 12.0. For the same molecule, in the experiment on Botrytis cinerea [3] (setting [12]), the Infection degree amounted to 17.5. The molecule also yielded an Infection degree in the experiment with Botrytis cinerea [3] (setting [13]) of 17.5. Moreover, the EC90 in the experiment with Botrytis cinerea [4] is 1.4 mg/L (≈ 4.59 µM).
As for `COC(=O)NC(=S)Nc1ccccc1NC(=S)NC(=O)OC` [E, dimethyl-4,4′-o-phenylene-bis(3-thioalfanate)], the Diameter of lesion is 10 mm with Botrytis cinerea [2] (setting [5]); 18 mm with Botrytis cinerea [2] (setting [6]); 21 mm in the experiment on Botrytis cinerea [2] (setting [7]); 22 mm with Botrytis cinerea [2] (setting [8]); 26 mm in the experiment with Botrytis cinerea [2] (setting [9]). Also, the Average infected area with Sclerotinia sclerotiorum is reported as 20%. The molecule further returned a Controlled value in the experiment on Sclerotinia sclerotiorum of 80%.
On to `CCCC(c1ccc(Cl)cc1Cl)C(C#N)n1ccnc1` (centres unmarked) [A, 3-(2,4-dichlorophenyl)-2-(1-imidazolyl)hexanenitrile], for which the Diameter of lesion with Botrytis cinerea [2] (setting [5]) is given as 10 mm; in the experiment with Botrytis cinerea [2] (setting [6]), 18 mm; with Botrytis cinerea [2] (setting [7]), 23 mm; with Botrytis cinerea [2] (setting [8]) it was 26 mm; in the experiment with Botrytis cinerea [2] (setting [9]), 30 mm. This molecule also came in with an Average infected area in the experiment with Sclerotinia sclerotiorum of 40%. The molecule also had a Controlled value in the experiment on Sclerotinia sclerotiorum of 60%. Moreover, the Infection degree in the experiment with Botrytis cinerea [3] (setting [10]) came to 25.0; in the experiment with Botrytis cinerea [3] (setting [11]), 37.5; with Botrytis cinerea [3] (setting [12]), 45.0; with Botrytis cinerea [3] (setting [13]), 62.5. For the same molecule, the EC90 with Botrytis cinerea [4] was 10.9 mg/L (≈ 35.4 µM).
In the case of `CC12CC1(C)C(=O)N(c1cc(Cl)cc(Cl)c1)C2=O` (centres unmarked) [D, N-(3′,5′-dichlorophenyl)-1,2-dimethylcyclopropane-1,2-dicarboximide], the Infection degree with Botrytis cinerea [3] (setting [10]) is reported as 12.0; in the experiment with Botrytis cinerea [3] (setting [11]), 15.5; with Botrytis cinerea [3] (setting [12]) it was 20.5; with Botrytis cinerea [3] (setting [13]) it was 25.0.
